According to paper PMC6864627, “Synthesis of Novel Triazinoindole-Based Thiourea Hybrid: A Study on α-Glucosidase Inhibitors and Their Molecular Docking” (Molecules, 2019):

biological target: T1, α-glucosidase (Saccharomyces cerevisiae, UniProt P53341); test: α-glucosidase inhibition assay; assay type: biochemical; conditions: 50 mM phosphate buffer pH 6.8; 0.057 units enzyme; standard acarbose
T1 construct: purchased Sigma Inc
Protocol: The α-glucosidase activity was executed according to Fazal et al.. The following chemicals were used (concentrations): • 70 μL of 50 mM phosphate buffer (pH 6.8); • 10 μL (0.5 mM in methanol) test compounds; and • 10 μL (0.057 units, Sigma Inc.) of enzyme solution in buffer. For details on the experiment, kindly see Reference.

T1 sequence (P53341 whole entry): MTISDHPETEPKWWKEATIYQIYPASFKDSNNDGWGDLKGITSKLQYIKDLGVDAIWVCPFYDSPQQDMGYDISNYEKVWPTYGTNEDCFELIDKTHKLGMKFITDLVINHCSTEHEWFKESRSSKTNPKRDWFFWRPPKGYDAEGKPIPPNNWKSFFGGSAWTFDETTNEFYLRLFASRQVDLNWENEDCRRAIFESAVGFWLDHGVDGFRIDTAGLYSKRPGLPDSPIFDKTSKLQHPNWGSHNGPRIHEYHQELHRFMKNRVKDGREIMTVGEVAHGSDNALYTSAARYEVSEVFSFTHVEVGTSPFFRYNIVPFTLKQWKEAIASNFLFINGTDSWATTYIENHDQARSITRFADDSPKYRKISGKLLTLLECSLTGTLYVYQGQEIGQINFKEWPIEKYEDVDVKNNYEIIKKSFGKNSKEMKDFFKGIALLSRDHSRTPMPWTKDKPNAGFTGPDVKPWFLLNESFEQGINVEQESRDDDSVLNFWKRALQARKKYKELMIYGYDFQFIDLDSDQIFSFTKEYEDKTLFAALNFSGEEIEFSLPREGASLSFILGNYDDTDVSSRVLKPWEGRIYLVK

| SMILES | IC50 |
| --- | --- |
| Cc1ccc(C(CSc2nnc3c(n2)[nH]c2ccccc23)=NNC(=S)Nc2ccc(Cl)c(Cl)c2)cc1 [Compound 21, 2-(2-((5H-[1,2,4]triazino[5,6-b]indol-3-yl)thio)-1-(p-tolyl)ethylidene)-N-(3,4-dichlorophenyl)hydrazine-1-carbothioamide] | 4.8 ± 0.2 µM |
| COc1ccc(C(CSc2nnc3c(n2)[nH]c2ccccc23)=NNC(=S)Nc2c(C)cccc2C)cc1 [Compound 15, 2-(2-((5H-[1,2,4]triazino[5,6-b]indol-3-yl)thio)-1-(4-methoxyphenyl)ethylidene)-N-(2,6-dimethylphenyl)hydrazine-1-carbothioamide] | 5.8 ± 0.2 µM |
| COc1ccc(C(CSc2nnc3c(n2)[nH]c2ccccc23)=NNC(=S)Nc2cccc(C)c2C)cc1 [Compound 22, 2-(2-((5H-[1,2,4]triazino[5,6-b]indol-3-yl)thio)-1-(4-methoxyphenyl)ethylidene)-N-(2,3-dimethylphenyl)hydrazine-1-carbothioamide] | 5.9 ± 0.1 µM |
| Cc1ccc(C(CSc2nnc3c(n2)[nH]c2ccccc23)=NNC(=S)Nc2ccccc2Br)cc1 [Compound 7, 2-(2-((5H-[1,2,4]triazino[5,6-b]indol-3-yl)thio)-1-(p-tolyl)ethylidene)-N-(2-bromophenyl)hydrazine-1-carbothioamide] | 33.3 ± 0.6 µM |
| COc1ccc(C(CSc2nnc3c(n2)[nH]c2ccccc23)=NNC(=S)Nc2ccc(F)cc2)cc1 [Compound 16, 2-(2-((5H-[1,2,4]triazino[5,6-b]indol-3-yl)thio)-1-(4-methoxyphenyl)ethylidene)-N-(4-fluorophenyl)hydrazine-1-carbothioamide] | 1.8 ± 0.2 µM |
| Cc1ccc(NC(=S)NN=C(CSc2nnc3c(n2)[nH]c2ccccc23)c2ccc(-c3ccccc3)cc2)cc1 [Compound 4, 2-(2-((5H-[1,2,4]triazino[5,6-b]indol-3-yl)thio)-1-([1,1′-biphenyl]-4-yl)ethylidene)-N-(p-tolyl)hydrazine-1-carbothioamide] | 12.8 ± 0.3 µM |
| O=[N+]([O-])c1cccc(C(CSc2nnc3c(n2)[nH]c2ccccc23)=NNC(=S)Nc2ccccc2)c1 [Compound 17, 2-(2-((5H-[1,2,4]triazino[5,6-b]indol-3-yl)thio)-1-(3-nitrophenyl)ethylidene)-N-phenylhydrazine-1-carbothioamide] | 8.8 ± 0.2 µM |
| Cc1ccc(NC(=S)NN=C(CSc2nnc3c(n2)[nH]c2ccccc23)c2cccc([N+](=O)[O-])c2)cc1 [Compound 12, 2-(2-((5H-[1,2,4]triazino[5,6-b]indol-3-yl)thio)-1-(3-nitrophenyl)ethylidene)-N-(p-tolyl)hydrazine-1-carbothioamide] | 8.3 ± 0.2 µM |
| Cc1cccc(C)c1NC(=S)NN=C(CSc1nnc2c(n1)[nH]c1ccccc12)c1cccc([N+](=O)[O-])c1 [Compound 14, 2-(2-((5H-[1,2,4]triazino[5,6-b]indol-3-yl)thio)-1-(3-nitrophenyl)ethylidene)-N-(2,6-dimethylphenyl)hydrazine-1-carbothioamide] | 7.5 ± 0.2 µM |
| COc1ccc(C(CSc2nnc3c(n2)[nH]c2ccccc23)=NNC(=S)Nc2ccc([N+](=O)[O-])cc2)cc1 [Compound 2, 2-(2-((5H-[1,2,4]triazino [5,6-b]indol-3-yl)thio)-1-(4-methoxyphenyl)ethylidene)-N-(4-nitrophenyl)hydrazine-1-carbothioamide] | 2.6 ± 0.05 µM |
| S=C(NN=C(CSc1nnc2c(n1)[nH]c1ccccc12)c1ccc(-c2ccccc2)cc1)Nc1ccccc1Br [Compound 6, 2-(2-((5H-[1,2,4]triazino[5,6-b]indol-3-yl)thio)-1-([1,1′-biphenyl]-4-yl)ethylidene)-N-(2-bromophenyl)hydrazine-1-carbothioamide] | 25.3 ± 0.5 µM |
| S=C(NN=C(CSc1nnc2c(n1)[nH]c1ccccc12)c1ccc(-c2ccccc2)cc1)Nc1cccc(Cl)c1Cl [Compound 3, 2-(2-((5H-[1,2,4]triazino [5,6-b]indol-3-yl)thio)-1-([1,1′-biphenyl]-4-yl)ethylidene)-N-(2,3-dichlorophenyl)hydrazine-1-carbothioamide] | 7.5 ± 0.2 µM |
| COc1ccc(C(CSc2nnc3c(n2)[nH]c2ccccc23)=NNC(=S)Nc2ccc(Cl)c(Cl)c2)cc1 [Compound 18, 2-(2-((5H-[1,2,4]triazino[5,6-b]indol-3-yl)thio)-1-(4-methoxyphenyl)ethylidene)-N-(3,4-dichlorophenyl)hydrazine-1-carbothioamide] | 2.3 ± 0.05 µM |
| COc1ccc(C(CSc2nnc3c(n2)[nH]c2ccccc23)=NNC(=S)Nc2cccc(Cl)c2Cl)cc1 [Compound 1, 2-(2-((5H-[1,2,4]triazino [5,6-b]indol-3-yl)thio)-1-(4-methoxyphenyl)ethylidene)-N-(2,3-dichlorophenyl)hydrazine-1-carbothioamide] | 1.3 ± 0.05 µM |
| S=C(NN=C(CSc1nnc2c(n1)[nH]c1ccccc12)c1ccc(-c2ccccc2)cc1)Nc1ccccc1 [Compound 24, 2-(2-((5H-[1,2,4]triazino[5,6-b]indol-3-yl)thio)-1-([1,1′-biphenyl]-4-yl)ethylidene)-N-phenylhydrazine-1-carbothioamide] | 15.3 ± 0.3 µM |
| Cc1cccc(C)c1NC(=S)NN=C(CSc1nnc2c(n1)[nH]c1ccccc12)c1ccc(-c2ccccc2)cc1 [Compound 13, 2-(2-((5H-[1,2,4]triazino[5,6-b]indol-3-yl)thio)-1-([1,1′-biphenyl]-4-yl)ethylidene)-N-(2,6-dimethylphenyl)hydrazine-1-carbothioamide] | 23.3 ± 0.5 µM |
| Cc1ccc(C(CSc2nnc3c(n2)[nH]c2ccccc23)=NNC(=S)Nc2c(C)cccc2C)cc1 [Compound 20, 2-(2-((5H-[1,2,4]triazino[5,6-b]indol-3-yl)thio)-1-(p-tolyl)ethylidene)-N-(2,6-dimethylphenyl)hydrazine-1-carbothioamide] | 7.5 ± 0.2 µM |
| S=C(NN=C(CSc1nnc2c(n1)[nH]c1ccccc12)c1ccc(-c2ccccc2)cc1)Nc1ccc(Cl)c(Cl)c1 [Compound 19, 2-(2-((5H-[1,2,4]triazino[5,6-b]indol-3-yl)thio)-1-([1,1′-biphenyl]-4-yl)ethylidene)-N-(3,4-dichlorophenyl)hydrazine-1-carbothioamide] | 2.3 ± 0.05 µM |
| COc1ccc(C(CSc2nnc3c(n2)[nH]c2ccccc23)=NNC(=S)Nc2ccc(C)cc2)cc1 [Compound 5, 2-(2-((5H-[1,2,4]triazino[5,6-b]indol-3-yl)thio)-1-(4-methoxyphenyl)ethylidene)-N-(p-tolyl)hydrazine-1-carbothioamide] | 5.2 ± 0.3 µM |
| COc1ccc(C(CSc2nnc3c(n2)[nH]c2ccccc23)=NNC(=S)Nc2ccccc2Br)cc1 [Compound 10, 2-(2-((5H-[1,2,4]triazino[5,6-b]indol-3-yl)thio)-1-(4-methoxyphenyl)ethylidene)-N-(2-bromophenyl)hydrazine-1-carbothioamide] | 35.8 ± 0.8 µM |
| O=[N+]([O-])c1cccc(C(CSc2nnc3c(n2)[nH]c2ccccc23)=NNC(=S)Nc2ccccc2Br)c1 [Compound 11, 2-(2-((5H-[1,2,4]triazino[5,6-b]indol-3-yl)thio)-1-(3-nitrophenyl)ethylidene)-N-(2-bromophenyl)hydrazine-1-carbothioamide] | 26.8 ± 0.7 µM |
| O=[N+]([O-])c1ccc(C(CSc2nnc3c(n2)[nH]c2ccccc23)=NNC(=S)Nc2ccccc2)cc1 [Compound 9, 2-(2-((5H-[1,2,4]triazino[5,6-b]indol-3-yl)thio)-1-(4-nitrophenyl)ethylidene)-N-phenylhydrazine-1-carbothioamide] | 6.8 ± 0.1 µM |
| O=[N+]([O-])c1cccc(C(CSc2nnc3c(n2)[nH]c2ccccc23)=NNC(=S)Nc2cccc(Cl)c2Cl)c1 [Compound 23, 2-(2-((5H-[1,2,4]triazino[5,6-b]indol-3-yl)thio)-1-(3-nitrophenyl)ethylidene)-N-(2,3-dichlorophenyl)hydrazine-1-carbothioamide] | 1.3 ± 0.01 µM |
| Cc1ccc(NC(=S)NN=C(CSc2nnc3c(n2)[nH]c2ccccc23)c2ccc(C)cc2)cc1 [Compound 8, 2-(2-((5H-[1,2,4]triazino[5,6-b]indol-3-yl)thio)-1-(p-tolyl)ethylidene)-N-(p-tolyl)hydrazine-1-carbothioamide] | 17.5 ± 0.3 µM |
| COc1ccc(C(CSc2nnc3c(n2)[nH]c2ccccc23)=NNC(=S)Nc2ccccc2)cc1 [Compound 25, 2-(2-((5H-[1,2,4]triazino[5,6-b]indol-3-yl)thio)-1-(4-methoxyphenyl)ethylidene)-N-phenylhydrazine-1-carbothioamide] | 9.3 ± 0.3 µM |
